For 13 compounds, Emax and EC50 results are on record in patent publication US9073935B2, “Substituted benzylspiroindolin-2-one analogs as positive allosteric modulators of the muscarinic acetylcholine receptor M1” (VANDERBILT UNIVERSITY, priority 2011, dated 2015).

One may read the Emax as the size of the effect at its maximum, as opposed to the concentration needed. The EC50 is the midpoint of the concentration-response curve.

The assay concerns the target T1, mAChR M1 (UniProt P11229).
T1 sequence (P11229 1-460): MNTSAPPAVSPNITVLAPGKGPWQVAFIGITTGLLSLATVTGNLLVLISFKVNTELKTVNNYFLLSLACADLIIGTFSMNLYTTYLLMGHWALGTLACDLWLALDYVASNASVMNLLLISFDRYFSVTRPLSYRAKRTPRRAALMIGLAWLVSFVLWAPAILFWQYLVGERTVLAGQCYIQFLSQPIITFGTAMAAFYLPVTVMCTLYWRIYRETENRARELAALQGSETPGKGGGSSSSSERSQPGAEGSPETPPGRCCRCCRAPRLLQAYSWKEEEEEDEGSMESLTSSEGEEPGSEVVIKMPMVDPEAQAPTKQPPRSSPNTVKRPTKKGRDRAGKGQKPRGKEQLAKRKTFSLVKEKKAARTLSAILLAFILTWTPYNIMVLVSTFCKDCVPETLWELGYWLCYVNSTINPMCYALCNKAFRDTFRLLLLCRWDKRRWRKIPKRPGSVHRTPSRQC
The assay can be described thus: mAChR M1 cell-based functional assay (calcium mobilization, potentiation of EC20 acetylcholine response). The note with it: for Emax: % ACh maximum at 30 μM; for EC50: CHO-K1 cells expressing mAChR M1, increase in EC20 acetylcholine response, >10 μM estimated where no plateau in the curve. As for the experimental part: Chinese hamster ovary (CHO-K1) cells stably expressing rat (r)M1 were purchased from the American Type Culture Collection and cultured according to their indicated protocol. […] To make stable rM2, hM2, rM3, hM4, and rM4 cell lines for use in calcium mobilization assays, these cells also were stably transfected with a chimeric G-protein (Gqi5) (provided by B. R. Conklin, University of California, San Francisco) using Lipofectamine 2000. rM1, hM1, rM3, hM3, rM5, and hM5 cells were grown in Ham's F-12 medium containing 10% heat-inactivated fetal bovine serum (FBS), 20 mM HEPES, and 50 μg/mL G418 sulfate. rM2-Gqi5, hM2-Gqi5, and hM4-Gqi5 cells were grown in the same medium also containing 500 μg/mL Hygromycin B. Stable rM4-Gqi5 cells were grown in DMEM containing 10% heat-inactivated FBS, 20 mM HEPES, 400 μg/mL G418 sulfate, and 500 μg/mL Hygromycin B.
For high throughput measurement of agonist-evoked increases in intracellular calcium, CHO-K1 cells stably expressing muscarinic receptors were plated in growth medium lacking G418 and hygromycin at 15,000 cells/20 μL/well in Greiner 384-well black-walled, tissue culture (TC)-treated, clear-bottom plates (VWR). Cells were incubated overnight at 37° C. and 5% CO2. […] Compound master plates were formatted in an 11 point CRC format (1:3 dilutions) in 100% DMSO with a starting concentration of 10 mM using the BRAVO liquid handler (Agilent). Test compound CRCs were then transferred to daughter plates ([…]) using the Echo acoustic plate reformatter (Labcyte, Sunnyvale, Calif.) and then diluted into assay buffer (40 μL) to a 2× stock using a Thermo Fisher Combi (Thermo Fisher Scientific, Waltham, Mass.).
Calcium flux was measured using the Functional Drug Screening System (FDSS) 6000 (Hamamatsu Corporation, Tokyo, Japan) as an increase in the fluorescent static ratio. Compounds were applied to cells (20 μL, 2×) using the automated system of the FDSS 6000 at 4 s into the 300 s protocol and the data were collected at 1 Hz. […] Agonist activity was analyzed as a concentration-dependent increase in calcium mobilization upon compound addition. Positive allosteric modulator activity was analyzed as a concentration-dependent increase in the EC20 acetylcholine response. Antagonist activity was analyzed as a concentration-dependent decrease in the EC80 acetylcholine response. Concentration-response curves were generated using a four-parameter logistical equation in XLfit curve fitting software (IDBS, Bridgewater, N.J.) for Excel (Microsoft, Redmond, Wash.) or Prism (GraphPad Software, Inc., San Diego, Calif.).
The calcium mobilization assay was also used to determine “efficacy”. In the context of the assays carried out for the data in Table II, “efficacy” (% ACh at 30 μM) is defined as the maximal response in the calcium flux as determined by the sigmoidal curve fit of the concentration response curve, or in the absence of an acceptable curve fit, the response recorded at 30 μM test compound, stated as a percentage of the response elicited by a concentration of Ach that induces approximately 80% of a maximal (i.e. saturating) ACh response.
Substituted benzylspiroindolin-2-one analogs were synthesized as described above. Activity (EC50 and Emax) was determined in the mAChR M1 cell-based functional assay as described above and the data are shown in Table III. The compound number corresponds to the compound numbers used in Tables I and II.

In the case of `CN1CCC2(CC1)C(=O)N(Cc1c(F)cc(-c3ccc4nn(C)cc4c3)cc1F)c1ccccc12` [Compound B77], the Emax is on record as 26% and the 50% effective concentration (EC50) was above 10 µM.

With `CCCn1cc(-c2ccc(CN3C(=O)C4(CCN(C5CCCC5)C4)c4ccccc43)c(F)c2)cn1` (centres unmarked) [Compound B32], the maximum response (Emax) worked out at 41% and the concentration giving a half-maximal response (EC50) is 3.8 µM.

`Cn1cc(-c2ccc(CN3C(=O)C4(CCN(C5CCCCCC5)C4)c4ccccc43)c(F)c2)cn1` (centres unmarked) [Compound B21]: the Emax is given as 51% and the EC50 was 3 µM.

Regarding `CN1CCC(N2CCC3(C2)C(=O)N(Cc2ccc(-c4cnn(C)c4)cc2F)c2ccccc23)CC1` (centres unmarked) [Compound B27], the Emax is listed as 63% and the EC50 was 3.5 µM.

`Cn1cc(-c2ccc(CN3C(=O)C4(OCCO4)c4ccccc43)c(F)c2)cn1` [Compound B22, 1′-(2-fluoro-4-(1-methyl-1H-pyrazol-4-yl)benzyl)spiro[[1,3]dioxolane-2,3′-indolin]-2′-one]: the maximum response (Emax) came to 86% and the 50% effective concentration (EC50) is 3.2 µM.

Turning to `Cn1cc(-c2ccc(CN3C(=O)C4(CCN(C5CCCCC5)C4)c4ccccc43)c(F)c2)cn1` (centres unmarked) [Compound B5], the maximal effect (Emax) worked out at 66% and the EC50 was 1.8 µM.

Take `Cn1cc(-c2cc(F)c(CN3C(=O)C4(CCN(C5CCCC5)C4)c4ccccc43)cc2F)cn1` (centres unmarked) [Compound B13]: the Emax came to 62% and the 50% effective concentration (EC50) is 2.4 µM.

For `Cn1cc(-c2ccc(CN3C(=O)C4(CCN(CC5CCCCC5)C4)c4ccccc43)c(F)c2)cn1` (single isomer, unassigned) [Compound B73], the maximal effect (Emax) is below 20% and the EC50 was above 10 µM.

Take `Cn1cc(-c2ccc(CN3C(=O)C4(CCN(C5CCC(F)(F)CC5)C4)c4ccccc43)c(F)c2)cn1` (centres unmarked) [Compound B59]: the maximum response (Emax) is 53% and the concentration for a half-maximal effect (EC50) was above 10 µM.

On to `Cn1cc(-c2ccc(CN3C(=O)C4(CCN(C5CCCSC5)CC4)c4ccccc43)c(F)c2)cn1` (centres unmarked) [Compound B29], for which the maximal effect (Emax) turned out to be 42% and the concentration for a half-maximal effect (EC50) is 3.7 µM.

For `Cn1cc(-c2ccc(CN3C(=O)C4(CCN(C5CCCOC5)C4)c4ccccc43)c(F)c2)cn1` (single isomer, unassigned) [Compound B35], the maximum response (Emax) is on record as 57% and the half-maximal effective concentration (EC50) was 3.9 µM.

As to `Cn1cc(-c2ccc(CN3C(=O)C4(CCN(C5CCOCC5)C4)c4ccccc43)c(F)c2)cn1` (centres unmarked) [Compound B10], the maximum response (Emax) was found to be 61% and the EC50 was 2.4 µM.

Consider `Cn1cc(-c2ccc(CN3C(=O)C4(CCN(CC5CCCCC5)C4)c4ccccc43)c(F)c2)cn1` (single isomer, unassigned) [Compound B72], for which the maximum response (Emax) was determined as 36% and the EC50 was above 10 µM.
